What follows are molecules tested on Hedgehog pathway (assay: Gli-Luc assay (Hedgehog-responsive Luciferase reporter), 10T1/2(s12) cells with OCT-SHH). Settings: OCT-SHH 0.3 μg/ml.
Type: cell-based
Protocol: Compounds to be tested are dissolved in DMSO to a concentration of 10 MM, and stored at −20° C. To activate the Hedgehog pathway in the assay cells, an octylated (lipid-modified) form of the N-terminal fragment of the Sonic Hedgehog protein (OCT-SHH) is used. This N-terminal SHH fragment is produced bacterially.
Compounds may be tested in the “Gli-Luc” assay below, using the cell line 10T(s12), wherein the cells contain a Hedgehog-responsive reporter construct utilizing Luciferase as the reporter gene. In this way, Hedgehog pathway signaling activity can be measured via the Gli-Luc response.
10t1/2(s12) cells are plated in a 96-well micro-titer plate (MTP) at 20,000 cells/well in full medium [DMEM with 10% FBS]. Then plates are placed in the incubator for incubation overnight (O/N), at 37° C. and 5% CO2. After 24 h, the medium is replaced with Luciferase-assay medium (DMEM with 0.5% FBS). Compounds are thawed and diluted in assay medium at 3:1000 (about 300-fold) resulting in a starting concentration of about 30 μM.
Subsequently, 150 μl of each 30 μM sample is added to the first wells (in triplicate). The MTP samples are then diluted at 3-fold dilutions to a total of seven wells, ultimately resulting in a regiment of seven dilutions in triplicate, for each compound. Next, the protein ligand OCT-SHH is diluted in Luciferase-assay medium and added to each well at a final concentration of 0.3 μg/ml. Plates are then returned to the incubator for further incubation O/N, at 37° C. and 5% CO2. After about 24 h, plates are removed from the incubator and the medium is aspirated/discarded. Wells are washed once with assay buffer [PBS +1 mM Mg^2+and 1 mM Ca^2+]. Then 50 μl of assay buffer is added to each well. The Luciferase assay reagent is prepared as described by the vendor (LucLite kit from Packard), and 50 μl is added to each well. Plates are incubated at room temperature (RT) for about 30 minutes after which the signals are read, again at RT, on a Topcount (Packard).
`COc1cccc(CN(C(=O)CC(C)(C)C)C2CC(C(=O)N3CCNCC3)N(Cc3cc4ccccc4n3C)C2)c1` (stereo not drawn) [F″] showed an IC50 of under 10000 nM.
`COc1cccc(CN2CC(N(Cc3cccc(OC)c3)C(=O)CC(C)(C)C)CC2C(=O)N2CCNCC2)c1` (stereo not drawn) [F] was tested, and the IC50 was under 1000 nM.
`COc1cccc(CN(C(=O)CC(C)(C)C)C2CC(C(=O)N3CCNCC3)N(Cc3ccc(C)s3)C2)c1` (stereo not drawn) [M′] showed an IC50 of under 100 nM.
In the case of `COc1cccc(CN(C(=O)C2CCC2)C2CC(C(=O)N3CCNCC3)N(Cc3ccc4c(c3)OCCO4)C2)c1` (stereo not drawn) [U′], the IC50 is reported as under 1000 nM.
`COc1cccc(CN(C(=O)C(C)C)C2CC(C(=O)N3CCNCC3)N(Cc3ccc4c(c3)OCO4)C2)c1` (stereo not drawn) [P] showed an IC50 of under 100 nM.
`COc1cccc(CN(C(=O)C2CC2)C2CC(C(=O)N3CCNCC3)N(CC3CCCCC3)C2)c1` (stereo not drawn) [S] showed an IC50 of under 1000 nM.
For `COc1cccc(CN(C(=O)C(C)C)C2CC(C(=O)N3CCNCC3)N(Cc3ccc(OC)c(OC)c3OC)C2)c1` (stereo not drawn) [P′], the IC50 was under 10000 nM.
`COc1cccc(CN(C(=O)C2CC2)C2CC(C(=O)N3CCNCC3)N(CC(C)C)C2)c1` (stereo not drawn) [A′] gave an IC50 of under 10000 nM.
In the case of `COc1cccc(CN(C(=O)CC(C)(C)C)[C@H]2C[C@@H](C(=O)NC3CCNCC3)N(Cc3ccc4c(c3)OCO4)C2)c1` [B′″], the IC50 is reported as under 1000 nM.
With `COc1cccc(CN(C(=O)CC(C)C)C2CC(C(=O)N3CCNCC3)N(Cc3ccc4c(c3)OCCO4)C2)c1` (stereo not drawn) [H] the IC50 was under 100 nM.
In the case of `COc1cccc(CN(C(=O)C2CCC2)C2CC(C(=O)N3CCNCC3)N(Cc3ccc(OC)c(OC)c3OC)C2)c1` (stereo not drawn) [T′], the IC50 is reported as under 1000 nM.
`CC(C)CC(=O)N(Cc1cccc(C#N)c1)C1CC(C(=O)N2CCNCC2)N(Cc2ccc3c(c2)OCO3)C1` (stereo not drawn) [S″] was tested, and the IC50 was under 1000 nM.
Molecule `Cc1ccccc1CN(CCc1ccccc1)C1CC(C(=O)NCC2CCC(CN)CC2)N(Cc2ccc3c(c2)OCO3)C1` (stereo not drawn) [I′] has an IC50 of under 10000 nM.
`COc1cccc(CN(C(=O)CC(C)(C)C)C2CC(C(=O)N3CCNCC3)N(Cc3cc4ccsc4s3)C2)c1` (stereo not drawn) [Y′] gave an IC50 of under 1000 nM.
With `COc1cccc(CN(C(=O)CC(C)(C)C)C2CC(C(=O)N3CCNCC3)N(Cc3ccc4c(c3)OCO4)C2)c1` (stereo not drawn) [M] the IC50 was under 1000 nM.
`COc1cccc(CN(C(=O)CC(C)(C)C)C2CC(C(=O)N3CCNCC3)N(Cc3ccc(-c4cc(C(F)(F)F)n(C)n4)s3)C2)c1` (stereo not drawn) [E″] gave an IC50 of under 10000 nM.
`CCN1CCC(N(CC)C(=O)[C@@H]2C[C@H](N(Cc3cccc(OC)c3)C(=O)CC(C)(C)C)CN2Cc2ccc3c(c2)OCO3)C1` (stereo partly drawn) [E′″] showed an IC50 of under 10000 nM.
`COc1cccc(CN(C(=O)C2CC2)C2CC(C(=O)N3CCNCC3)N(Cc3ccc(OC)c(OC)c3OC)C2)c1` (stereo not drawn) [N′] showed an IC50 of under 1000 nM.
With `COc1cccc(CN(C(=O)CC(C)(C)C)C2CC(C(=O)N3CCNCC3)N(Cc3cc(Br)cs3)C2)c1` (stereo not drawn) [L] the IC50 was under 10000 nM.
`COc1cccc(CN(C(=O)CC(C)C)C2CC(C(=O)N3CCNCC3)N(Cc3ccc4c(c3)OCCO4)C2)c1` (stereo not drawn) [R′] was tested, and the IC50 was under 1000 nM.
`COc1cccc(CN(C(=O)c2cccs2)C2CC(C(=O)N3CCNCC3)N(Cc3ccc(C)s3)C2)c1` (stereo not drawn) [A] was tested, and the IC50 was under 1000 nM.
Work on `COc1cccc(CN(C(=O)CC2CCCC2)C2CC(C(=O)N3CCNCC3)N(Cc3ccc4c(c3)OCO4)C2)c1` (stereo not drawn) [K″] yielded an IC50 of under 1000 nM.
`COc1cccc(CN(C(=O)CC(C)(C)C)C2CC(C(=O)N3CCCNCC3)N(Cc3ccc4c(c3)OCO4)C2)c1` (stereo not drawn) [Z] gave an IC50 of under 1000 nM.
`COc1cccc(CN(C(=O)CC(C)(C)C)C2CC(C(=O)N3CCNCC3)N(CC3CCCCC3)C2)c1` (stereo not drawn) [T] showed an IC50 of under 1000 nM.

The molecules below were run on Ptc-null cells (gli-1 mRNA, Patched pathway) (assay: Ptc-null assay: gli-1 mRNA by RT-PCR and quantitative real-time PCR). Settings: 3 days, 5 μM jervine.
Type: cell-based, mouse
Protocol: Ptc-null cells were cultured for 3 days in the presence of vehicle; jervine, a known Patched pathway antagonist (i) used here as a positive control; or 1 μM of compound D. Total ribonucleic acid (RNA) was isolated from the cells and used for reverse transcriptase-polymerase chain reaction (RT-PCR). […] The gli-1 and actin mRNA samples were then loaded on 1.5% agarose gel and were detected by staining with ethidium bromide. The same samples were analyzed by the quantitative real-time polymerase chain reaction method to quantify the levels of gli-1 MRNA.
`CC1=C2C(=O)[C@H]3[C@@H](CC=C4C[C@@H](O)CC[C@@]43C)[C@@H]2CC[C@]12O[C@@H]1C[C@H](C)CN[C@H]1[C@H]2C` [jervine, reference compound] was tested, and the “gli-1 mRNA levels (quantitative real-time PCR)” value was “downregulated”.

Same assay, conditions: 3 days, 5 μM jervine, vs vehicle
With `CC1=C2C(=O)[C@H]3[C@@H](CC=C4C[C@@H](O)CC[C@@]43C)[C@@H]2CC[C@]12O[C@@H]1C[C@H](C)CN[C@H]1[C@H]2C` [jervine, reference compound] the “expression of gli-1 mRNA (RT-PCR, agarose gel)” value was “significantly decreased”.

What follows are molecules tested on Patched pathway / ultraviolet radiation-induced BCC tumors (assay: Adult BCC mouse skin punch assay (UV-irradiated Ptc heterozygous transgenic mice)). Settings: jervine positive control, 6 days, vs vehicle.
Type: cell-based
Protocol: Ptc heterozygous transgenic mice were irradiated 3 times weekly for 6 months, during which time many small, and often microscopic, BCC tumors developed. Four-mm diameter skin punch explants, presumably containing BCC structures, were cultured for 6 days in the presence of vehicle, the positive control […]), or 5 μM D. At the end of the experiment, the explants were analyzed by X-gal staining to detect the level of Patched pathway activity, by histology to determine the effect of treatment on the morphology of ultraviolet radiation-induced BCCs, and by quantifying the level of gli-1 mRNA expression to characterize the extent of pathway inhibition.
With `CC1=C2C(=O)[C@H]3[C@@H](CC=C4C[C@@H](O)CC[C@@]43C)[C@@H]2CC[C@]12O[C@@H]1C[C@H](C)CN[C@H]1[C@H]2C` [jervine, reference compound] the “number and size of BCC structures (X-gal staining)” value was “greatly decreased”.

Reference: patent US20020165221A1, “Mediators of hedgehog signaling pathways, compositions and uses related thereto” (priority 2000, published 2002)
